Experimental data reported in ChEMBL document CHEMBL1131533, “Development of a three-dimensional CysLT1 (LTD4) antagonist model with an incorporated amino acid residue from the receptor” (J Med Chem, 1998).

Biological target: T1, Cysteinyl leukotriene receptor 1 (Cavia porcellus, UniProt Q2NNR5)
T1 sequence (Q2NNR5 whole entry): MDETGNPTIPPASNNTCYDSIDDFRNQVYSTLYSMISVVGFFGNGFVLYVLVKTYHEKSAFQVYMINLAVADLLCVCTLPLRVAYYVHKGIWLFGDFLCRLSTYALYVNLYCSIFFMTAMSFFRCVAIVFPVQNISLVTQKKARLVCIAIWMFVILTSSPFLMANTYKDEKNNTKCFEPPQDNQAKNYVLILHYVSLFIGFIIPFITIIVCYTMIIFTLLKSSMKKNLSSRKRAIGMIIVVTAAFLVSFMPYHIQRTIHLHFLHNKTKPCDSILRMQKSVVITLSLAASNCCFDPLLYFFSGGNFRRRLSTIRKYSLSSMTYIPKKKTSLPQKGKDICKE
Assay: Binding affinity towards Cysteinyl leukotriene D4 receptor (cysLT1) was measured by the displacement of [3H]LTD4 radioligand

Ki [nM] | IC50 [nM] | SMILES
 | 17 | O=C(O)c1cccc2c(=O)cc(-c3cccc(/C=C/c4ccc5ccccc5n4)c3)oc12
3 |  | O=c1cc(-c2nnn[nH]2)oc2cc(OCc3cccc(OCc4ccc5ccccc5n4)c3)ccc12

The next lines start with the compound.

SMILES | Ki [nM] | IC50 [nM]
CCC(CC)(CC(=O)Nc1cccc(/C=C/c2nc(C3CCC3)cs2)c1)C(=O)O | 6.4 | 
O=C(Nc1cccc2c(=O)cc(-c3nn[nH]n3)oc12)c1ccc(OCc2ccc3ccccc3n2)cc1 | 1.1 | 
O=c1cc(-c2nnn[nH]2)oc2cc(/C=C/c3cccc(OCc4ccc5ccccc5n4)c3)ccc12 | 2.5 | 
